Data on 29 compounds can be found in patent US9051310B2, “Nicotinamide derivative or salt thereof” (FUJIFILM Corporation, priority 2011, dated 2015).

The target of the test is T1, glutathione S-transferase (GST)-linked full-length human Syk protein (Homo sapiens, UniProt P43405).
T1 construct: glutathione S-transferase (GST)-linked full-length human Syk protein; purchased Carna Biosciences; host or cells: Baculovirus expression system
In words: Syk enzyme assay. It counts as biochemical. Particulars: 0.83 nM Syk, time-resolved fluorescence; read-out: IC50 of Syk-inhibitory activity. An outline of the steps:
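Phosphotyrosine on a biotin-peptide substrate (0.5 μM) was read by time-resolved fluorescence at 615 and 665 nm with Eu-anti-pTyr antibody and APC-streptavidin after 1 h EDTA stop.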

pIC50: −log10 of the molar value.

As a reminder, the pIC50 is the negative decadic logarithm of the IC50, by convention in mol/L. In the case of `Cc1ccc(Nc2nc(N[C@@H]3CCCC[C@@H]3N)c(F)cc2C(N)=O)cc1Cl` [Example 2-445, 6-(((1R,2S)-2-aminocyclohexyl)amino)-2-((3-chloro-4-methylphenyl)amino)-5-fluoronicotinamide], the pIC50 was greater than 8.00.

With `Cc1cnn(-c2cncc(Nc3nc(N[C@H](C4CCC4)[C@H](C)N)c(F)cc3C(N)=O)c2)c1` [Example 2-523, 6-(((1R,2S)-2-amino-1-cyclobutylpropyl)amino)-5-fluoro-2-((5-(4-methyl-1H-pyrazol-1-yl)pyridin-3-yl)amino)nicotinamide], the pIC50 was greater than 8.00.

With `C[C@H](N)[C@H](Nc1nc(Nc2cc(N3CCOCC3)ncc2F)c(C(N)=O)cc1F)C1CC1` [Example 2-234, 6-(((1R,2S)-2-amino-1-cyclopropylpropyl)amino)-5-fluoro-2-((5-fluoro-2-morpholinopyridin-4-yl)amino)nicotinamide], the pIC50 was 7.00 to 7.30.

For `C[C@H](N)[C@H](Nc1nc(Nc2ccc3c(c2)c(N2CCCC2)nn3C)c(C(N)=O)cc1F)C1CC1` [Example 2-430, 6-(((1R,2S)-2-amino-1-cyclopropylpropyl)amino)-5-fluoro-2-((1-methyl-3-(pyrrolidin-1-yl)-1H-indazol-5-yl)amino)nicotinamide], the pIC50 was 7.30 to 8.00.

As for `COCCn1nc(OC(F)F)c2cc(Nc3nc(N[C@@H](CN)CC(C)C)c(F)cc3C(N)=O)ccc21` [Example 2-542, (R)-6-((1-amino-4-methylpentan-2-yl)amino)-2-((3-(difluoromethoxy)-1-(2-methoxyethyl)-1H-indazol-5-yl)amino)-5-fluoronicotinamide], the pIC50 is greater than 8.00.

`CC[C@H](N)[C@@H](C)Nc1nc(Nc2ccc3[nH]nc(N(C)C)c3c2)c(C(N)=O)cc1F` [Example 2-495, 6-(((2R,3S)-3-aminopentan-2-yl)amino)-2-((3-(dimethylamino)-1H-indazol-5-yl)amino)-5-fluoronicotinamide]: the pIC50 is greater than 8.00.

As to `COCCn1ncc2c(Nc3nc(N[C@H](CC(C)C)[C@H](C)N)c(F)cc3C(N)=O)cccc21` [Example 2-308, 6-(((2S,3R)-2-amino-5-methylhexan-3-yl)amino)-5-fluoro-2-((1-(2-methoxyethyl)-1H-indazol-4-yl)amino)nicotinamide], the pIC50 was greater than 8.00.

Turning to `Cn1nc(N2CCCC2=O)c2cc(Nc3nc(N[C@@H]4CCCC[C@@H]4N)c(F)cc3C(N)=O)ccc21` [Example 2-431, 6-(((1R,2S)-2-aminocyclohexyl)amino)-5-fluoro-2-((1-methyl-3-(2-oxopyrrolidin-1-yl)-1H-indazol-5-yl)amino)nicotinamide], the pIC50 is 7.30 to 8.00.

Regarding `CC(C)C[C@@H](Nc1nc(Nc2cnc(N3CCOCC3)c(F)c2)c(C(N)=O)cc1F)[C@H](C)N` [Example 2-237, 6-(((2S,3R)-2-amino-5-methylhexan-3-yl)amino)-5-fluoro-2-((5-fluoro-6-morpholinopyridin-3-yl)amino)nicotinamide], the pIC50 was 7.30 to 8.00.

As for `C[C@H](N)[C@H](Nc1nc(Nc2cncc3c2cnn3CC(F)F)c(C(N)=O)cc1F)C1CC1` [Example 2-398, 6-(((1R,2S)-2-amino-1-cyclopropylpropyl)amino)-2-((1-(2,2-difluoroethyl)-1H-pyrazolo[3,4-c]pyridin-4-yl)amino)-5-fluoronicotinamide], the pIC50 is greater than 8.00.

Regarding `COCCNc1nn(C)c2ccc(Nc3nc(N[C@@H]4CCCC[C@@H]4N)c(F)cc3C(N)=O)cc12` [Example 2-462, 6-(((1R,2S)-2-aminocyclohexyl)amino)-5-fluoro-2-((3-((2-methoxyethyl)amino)-1-methyl-1H-indazol-5-yl)amino)nicotinamide], the pIC50 is 7.30 to 8.00.

For `C[C@H](N)[C@H](Nc1nc(Nc2cnc(N3CCOCC3)c(F)c2)c(C(N)=O)cc1F)c1ccc(Cl)s1` [Example 2-511, 6-(((1S,2S)-2-amino-1-(5-chlorothiophen-2-yl)propyl)amino)-5-fluoro-2-((5-fluoro-6-morpholinopyridin-3-yl)amino)nicotinamide], the pIC50 is 7.30 to 8.00.

With `COCCn1ncc2c(Nc3nc(N[C@@H]4CCOC[C@@H]4N)c(F)cc3C(N)=O)cncc21` [Example 2-385, 6-(((3R,4R)-3-aminotetrahydro-2H-pyran-4-yl)amino)-5-fluoro-2-((1-(2-methoxyethyl)-1H-pyrazolo[3,4-c]pyridin-4-yl)amino)nicotinamide], the pIC50 is 7.30 to 8.00.

Turning to `Cc1cnn(-c2cncc(Nc3nc(N[C@H](C4CC4)[C@H](C)N)c(F)cc3C(N)=O)c2)n1` [Example 2-532, 6-(((1R,2S)-2-amino-1-cyclopropylpropyl)amino)-5-fluoro-2-((5-(4-methyl-2H-1,2,3-triazol-2-yl)pyridin-3-yl)amino)nicotinamide], the pIC50 is greater than 8.00.

For the compound `CN(C)c1nn(C)c2ccc(Nc3nc(N[C@@H](CN)Cc4ccccc4)c(F)cc3C(N)=O)cc12` [Example 2-421, (R)-6-((1-amino-3-phenylpropan-2-yl)amino)-2-((3-(dimethylamino)-1-methyl-1H-indazol-5-yl)amino)-5-fluoronicotinamide], the pIC50 was 7.30 to 8.00.

As for `COCCn1ncc2c(Nc3nc(N[C@@H](CN)CC(C)C)c(F)cc3C(N)=O)cccc21` [Example 2-303, (R)-6-((1-amino-4-methylpentan-2-yl)amino)-5-fluoro-2-((1-(2-methoxyethyl)-1H-indazol-4-yl)amino)nicotinamide], the pIC50 is greater than 8.00.

Regarding `NC(=O)c1cc(F)c(N[C@@H]2CCCC[C@@H]2N)nc1Nc1cnc(-n2ccnn2)c(F)c1` [Example 2-68, 6-(((1R,2S)-2-aminocyclohexyl)amino)-5-fluoro-2-((5-fluoro-6-(1H-1,2,3-triazol-1-yl)pyridin-3-yl)amino)nicotinamide], the pIC50 was 7.30 to 8.00.

For `COCCn1ncc2c(Nc3nc(N[C@@H](CN)CC(C)C)c(F)cc3C(N)=O)cncc21` [Example 2-386, (R)-6-((1-amino-4-methylpentan-2-yl)amino)-5-fluoro-2-((1-(2-methoxyethyl)-1H-pyrazolo[3,4-c]pyridin-4-yl)amino)nicotinamide], the pIC50 was greater than 8.00.

Regarding `CN(C)c1n[nH]c2ccc(Nc3nc(N[C@@H]4CCCC[C@@H]4N)c(F)cc3C(N)=O)cc12` [Example 2-492, 6-(((1R,2S)-2-aminocyclohexyl)amino)-2-((3-(dimethylamino)-1H-indazol-5-yl)amino)-5-fluoronicotinamide], the pIC50 is greater than 8.00.

For the compound `COCCn1nc(N(C)C)c2cc(Nc3nc(N[C@H](C4CCC4)[C@H](C)N)c(F)cc3C(N)=O)ccc21` [Example 2-506, 6-(((1R,2S)-2-amino-1-cyclobutylpropyl)amino)-2-((3-(dimethylamino)-1-(2-methoxyethyl)-1H-indazol-5-yl)amino)-5-fluoronicotinamide], the pIC50 was 7.30 to 8.00.

On to `C[C@H](N)[C@H](Nc1nc(Nc2ccc3c(c2)c(OC(F)F)nn3C)c(C(N)=O)cc1F)C1CC1` [Example 2-171, 6-(((1R,2S)-2-amino-1-cyclopropylpropyl)amino)-2-((3-(difluoromethoxy)-1-methyl-1H-indazol-5-yl)amino)-5-fluoronicotinamide], for which the pIC50 was greater than 8.00.

For `CCCC[C@@H](Nc1nc(Nc2ccc3c(c2)c(N(C)C)nn3C)c(C(N)=O)cc1F)[C@H](C)N` [Example 2-90, 6-(((2S,3R)-2-aminoheptan-3-yl)amino)-2-((3-(dimethylamino)-1-methyl-1H-indazol-5-yl)amino)-5-fluoronicotinamide], the pIC50 was 7.30 to 8.00.

With `CC[C@@H](Nc1nc(Nc2cnc(OC)c(-n3ccnn3)c2)c(C(N)=O)cc1F)[C@H](C)N` [Example 2-204, 6-(((2S,3R)-2-aminopentan-3-yl)amino)-5-fluoro-2-((6-methoxy-5-(1H-1,2,3-triazol-1-yl)pyridin-3-yl)amino)nicotinamide], the pIC50 was 7.30 to 8.00.

Consider `Cc1nn(CC(F)F)c2ccc(Nc3nc(N[C@H](C)[C@@H](N)C4CC4)c(F)cc3C(N)=O)cc12` [Example 2-300, 6-(((1S,2R)-1-amino-1-cyclopropylpropan-2-yl)amino)-2-((1-(2,2-difluoroethyl)-3-methyl-1H-indazol-5-yl)amino)-5-fluoronicotinamide], for which the pIC50 was 7.30 to 8.00.

`C[C@H](N)[C@H](Nc1nc(Nc2cnc3c(c2)c(N(C)C)nn3C)c(C(N)=O)cc1F)C1CC1` [Example 2-290, 6-(((1R,2S)-2-amino-1-cyclopropylpropyl)amino)-2-((3-(dimethylamino)-1-methyl-1H-pyrazolo[3,4-b]pyridin-5-yl)amino)-5-fluoronicotinamide]: the pIC50 was 7.30 to 8.00.

Turning to `COc1nn(C)c2ncc(Nc3nc(N[C@@H](CN)CC(C)C)c(F)cc3C(N)=O)cc12` [Example 2-250, (R)-6-((1-amino-4-methylpentan-2-yl)amino)-5-fluoro-2-((3-methoxy-1-methyl-1H-pyrazolo[3,4-b]pyridin-5-yl)amino)nicotinamide], the pIC50 was greater than 8.00.

With `CCOc1ncc(Nc2nc(N[C@H](C3CCC3)[C@H](C)N)c(F)cc2C(N)=O)cc1-n1ccnn1` [Example 2-167, 6-(((1R,2S)-2-amino-1-cyclobutylpropyl)amino)-2-((6-ethoxy-5-(1H-1,2,3-triazol-1-yl)pyridin-3-yl)amino)-5-fluoronicotinamide], the negative logarithm of the IC50 (pIC50) was 7.30 to 8.00.

On to `COCCNc1nn(CCOC)c2ccc(Nc3nc(N[C@H](C4CC4)[C@H](C)N)c(F)cc3C(N)=O)cc12` [Example 2-537, 6-(((1R,2S)-2-amino-1-cyclopropylpropyl)amino)-5-fluoro-2-((1-(2-methoxyethyl)-3-((2-methoxyethyl)amino)-1H-indazol-5-yl)amino)nicotinamide], for which the pIC50 was 7.30 to 8.00.

For `Cc1ncc(Nc2nc(N[C@@H]3CCC(F)(F)C[C@@H]3N)c(F)cc2C(N)=O)cc1-n1nccn1` (racemic) [Example 2-564, Mixture of 6-((2-amino-4,4-difluorocyclohexyl)amino)-5-fluoro-2-((6-methyl-5-(2H-1,2,3-triazol-2-yl)pyridin-3-yl)amino)nicotinamide (1R,2S), (1S,2R)], the pIC50 was 7.30 to 8.00.
